Source: patent US20050145258A1, “Composition, Method and Device for Blood Supply Fluctuation Therapy” (priority 2004, published 2005)

Legend:
uterine fibroids = test: Blood supply fluctuation therapy with gaseous mixture of CO2 and nitric oxide in patients with uterine fibroids; assay type: in vivo, human
Source text: Preparation of gaseous mixture of CO2 and Nitric Oxide: the preparation procedure was same as that of gaseous CO2 in example 1, except the gaseous material was not CO2, but the gaseous mixture of CO2 and Nitric Oxide (NO). The concentration of NO was present in an amount effective to prevent vasospasm and ischemia, 40 ppm here.
Selective catheterization and diagnostic Digital Subtraction Angiogrpahy (DSA) with Gaseous Mixture of CO2 and Nitric Oxide (NO): under monitoring of X-ray fluoroscope and using interventional technique of selective catheterization, a delivery catheter was inserted into the internal iliac artery in the patients with uterine fibroids. […]
Blood Supply Fluctuation Therapy (BSFT) with Gaseous Mixture of CO2 and Nitric Oxide (NO): gaseous mixture of CO2 and Nitric Oxide (NO) was injected slowly and intermittently by the delivery syringe through the delivery catheter into tumor vasculature at the rate of 1 ml/s and with 5 minutes interval each 20 ml injection. […] With the decreasing and stopping of the blood flow of tumor vasculature, the gaseous mixture injected through delivery catheter might overflows into the arteries supplying normal uterine wall that could be detected and monitored by X-ray fluoroscopy, DSA, CT or ultrasound imaging. […]

liver cancer = assay type: in vivo, human
Method: The inlet tube member 2 was connected to gas resource of gaseous CO2. 500 ml of the gaseous CO2 was introduced into storing bag for cleaning the air within the storing bag and delivery system. T Stopcock 1 in inlet tube member 2 was turned off to stop the gas into storing bag temporally. The gaseous CO2 in storing bag 3 was aspirated into syringe 6, then impelled by the syringe 6. Due to the function of check valve, during the aspirating of syringe, the first check valve 5 was open; meanwhile the second and third check valves were closed automatically. The gas in the storing bag was aspirated into syringe 6. During the impelling of syringe, the first check valve was closed and the second and third check valves were open automatically. The gaseous CO2 in the syringe is impelled out of the delivery device through the outlet of the third three-way stopcock. Repeating syringe aspirating and impelling until all gas in the storing bag was emptied, and the air within storing bag and delivery device was cleaned. After that, the stopcock on the inlet tubular member was turned on again to introduce the gaseous CO2 from the gas resource into storing bag 3 to fill the storing bag (2000 ml), then the stopcock 1 was turned off to stop gaseous CO2 introduction. The gaseous CO2 and delivery system was ready for use. […] The delivery catheter 13 was connected to the outlet of the third three-way stopcock of the delivery system, and the air within the catheter 13 was removed. Using the gaseous CO2 as contrast medium, 50 ml gaseous CO2 at rate of 10 ml/second was injected by syringe 6 into the hepatic artery to perform a diagnostic DSA. The diagnostic DSA was used to identify the location, size of tumor, arteries supplying blood to liver cancer, blood flow within tumor tissue and time gaseous CO2 staying in tumor vessels. All those information was necessary to doctor to select an optimal protocol of Blood Supply Fluctuation Therapy (BSFT). Then, the angiographic catheter was advanced into the artery supplying blood flow to the liver cancer. […] Blood Supply Fluctuation Therapy (BSFT) with Gaseous CO2: gaseous CO2 was injected slowly by the delivery syringe 6 through the catheter 13 into the tumor vasculature. […] The gas displaces the blood flow within the tumor vessels partially or entirely depending on the injection rate and lasting time. With increasing of the gaseous mixture, the blood supply to the liver cancer was decreased, even stopped. Because tumor vasculature was immature, “vapor lock” in tumor vasculature was produced by the gaseous CO2. With decreasing and stopping of the blood flow of tumor vasculature, the gaseous CO2 injected through delivery catheter might overflow into the arteries supplying normal liver tissue that could be detected and monitored by X-ray fluoroscopy, DSA, CT or ultrasound imaging. Because the gaseous CO2 was absorbable in blood and could be flushed away in normal vasculature within one minute, therefore the gaseous CO2 overflowing into normal vasculature caused no damage in normal liver tissue. At this time, gaseous CO2 delivery was stopped. Due to vapor lock, there was no blood flow in tumor vasculature and no nutrition and oxygen was delivery to tumor cells, which made it under starvation and hypoxia. Meanwhile also due to the vapor lock, area of the CO2 bubbles contacting with blood was getting much smaller, which limits CO2 absorbability and prolongs CO2 gas staying within tumor vasculature. […] Under X-ray fluoroscopy, the tumor looked like a balloon filled with gas (FIG. 9). Thirty minutes after injection of CO2 about half of the gas still remained in the tumor (FIG. 10).

With `O=C=O` [CO2, carbon dioxide] the “vapor lock in tumor vasculature, CT scan” value (uterine fibroids; 45 minutes after BSFT) was “produced”, the “gas seen in normal uterine tissue, CT scan” value (uterine fibroids; human, in vivo) was “No gas” and the “CO2 bubbles in immature tumor vasculature, DSA imaging” value (liver cancer; human, in vivo) was “filled and accumulated”. The “CO2 bubbles in normal liver tissue, DSA imaging” value (liver cancer; human, in vivo) was “no bubbles accumulated”, the “damage in normal liver tissue” value (liver cancer; human, in vivo) was “no damage” and the “discomfort felt by patients receiving the injection” value (liver cancer; human, in vivo) was “minor discomfort on liver area”. For the same compound, the “time CO2 accumulates and stays in abnormal vasculature” value (liver cancer; human, in vivo) was “for hours, even for days”, the “time to be flushed away in normal vasculature” value (liver cancer; human, in vivo) was “one” and the “vapor lock in tumor vasculature” value (liver cancer; repeated 50 ml injections through catheter) was “produced”. The “filling of liver tumor with CO2, X-ray” value (liver cancer; tumor 7 cm in diameter, total of 500 ml CO2, 3-5 ml/s, 3-5 minutes interval each 50 ml injection) was “fully filled”.
